One data set concerns the target MMP-12 (Homo sapiens, UniProt P39900). The data set can be described thus: MMP-12 colorimetric assay kit (Biomol AK-402). Format: biochemical. The protocol: (§1) Compounds were screened using the following commercially available Biomol assay kits: • MMP-1 colorimetric assay kit—Catalogue number AK-404, • MMP-2 colorimetric assay kit—Catalogue number AK-408, • MMP-8 calorimetric assay kit—Catalogue number AK-414, • MMP-9 calorimetric assay kit—Catalogue number AK-410, • MMP-12 colorimetric assay kit—Catalogue number AK-402, Which are available from Affiniti Research Products Ltd. (Palatine House, Matford Court, Exeter, EX2 8NL, UK).
(§2) Inhibitors were provided in powdered form, and stored at 4° C. For each inhibitor a 1 mM stock solution in DMSO was prepared, dispensed into 20 μl aliquots and these aliquots stored at −20° C. The stock solution was diluted to give 8 inhibitor concentrations (recommended: 50 μM, 5 μM, 500 nM, 50 nM, 5 nM, 500 pM, 50 pM and 5 pM). Dilutions were made in the kit assay buffer. A five-fold dilution of the inhibitor stocks is made on addition to the assay wells, therefore final concentration range was from 10 μM to 1 pM.
(§3) Details are provided with the commercial kit, but can be summarised as follows: • Prepare test compound dilutions as above, • Add assay buffer to plate, • Add test compounds to plate • Prepare standard kit inhibitor NNGH (see kit for dilution factor) • Add NNGH to control inhibitor wells • Prepare MMP enzyme (see kit for dilution factor) • Add MMP to plate • Incubate plate at 37° C. for ˜15 min • Prepare thiopeptolide substrate (see kit for dilution factor) • Add substrate to plate • Count every 2 min for 1 hr, 37° C., 414 nm on a Labsystems iEMS plate reader (for MMP-1 count every 30 seconds for 20 minutes).

A further data set has as its target T1, MMP-1 (Homo sapiens, UniProt P03956).
T1 sequence (P03956 100-469): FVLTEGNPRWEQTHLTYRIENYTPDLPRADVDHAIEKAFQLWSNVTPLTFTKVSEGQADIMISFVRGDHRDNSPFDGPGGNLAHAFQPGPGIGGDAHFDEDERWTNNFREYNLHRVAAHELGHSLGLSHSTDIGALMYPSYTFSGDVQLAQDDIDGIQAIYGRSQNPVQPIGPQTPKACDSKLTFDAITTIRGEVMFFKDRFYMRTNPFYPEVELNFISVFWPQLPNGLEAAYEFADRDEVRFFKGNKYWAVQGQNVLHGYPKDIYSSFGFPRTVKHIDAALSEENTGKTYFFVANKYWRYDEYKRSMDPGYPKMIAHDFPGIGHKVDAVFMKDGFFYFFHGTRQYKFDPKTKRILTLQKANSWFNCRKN
In words: MMP-1 colorimetric assay kit (Biomol AK-404). Format: biochemical. The protocol:
as §1, §2, §3

For the next data set, the target named is T2, MMP-2 (Homo sapiens, UniProt P08253).
T2 sequence (P08253 110-660): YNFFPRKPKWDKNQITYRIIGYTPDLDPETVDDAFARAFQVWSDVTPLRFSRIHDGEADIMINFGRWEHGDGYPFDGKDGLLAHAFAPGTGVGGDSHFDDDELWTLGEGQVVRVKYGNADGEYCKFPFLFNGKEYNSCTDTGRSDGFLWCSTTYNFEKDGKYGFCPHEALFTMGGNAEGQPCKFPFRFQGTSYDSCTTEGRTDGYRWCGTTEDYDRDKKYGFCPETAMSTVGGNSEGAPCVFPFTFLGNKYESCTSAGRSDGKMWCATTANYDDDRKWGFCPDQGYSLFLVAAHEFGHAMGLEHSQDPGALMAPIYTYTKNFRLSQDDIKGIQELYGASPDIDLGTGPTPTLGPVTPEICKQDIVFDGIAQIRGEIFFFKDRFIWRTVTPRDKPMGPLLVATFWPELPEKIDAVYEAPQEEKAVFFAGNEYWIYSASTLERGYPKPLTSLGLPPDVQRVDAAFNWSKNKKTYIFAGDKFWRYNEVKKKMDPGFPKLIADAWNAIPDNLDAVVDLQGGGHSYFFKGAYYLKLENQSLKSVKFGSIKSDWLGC
The data set can be described thus: MMP-2 colorimetric assay kit (Biomol AK-408). Format: biochemical. The protocol:
as §1, §2, §3

In the next data set the target is MMP-8 (Homo sapiens, UniProt P22894). The data set can be described thus: MMP-8 colorimetric assay kit (Biomol AK-414). It counts as biochemical. The protocol: as §1, §2, §3
Another data set deals with MMP-9 (Homo sapiens, UniProt P14780). The data set can be described thus: MMP-9 colorimetric assay kit (Biomol AK-410). It counts as biochemical. The protocol:
as §1, §2, §3

Data set [1] in a line: In vivo stability and metabolism in the rat. An excerpt:
Only plasma and bile samples could be analysed due to insufficient radioactivity within the urine.

Data set [2] has as its system MDA-MB-231 tumour (human breast carcinoma xenograft). The data set can be described thus: Imaging in MDA-MB-231 tumour model in vivo. The protocol: Imaging was performed with Compound 24A in the MDA-MB-231 tumour model (a human breast carcinoma xenograft model). […] 1999 May;17(3):231-8; • Lee et al, Eur. J Cancer, 2001; 37:106-113. • Weber et al Int J Oncol.
Data set [3] concerns ApoE −/− mice, carotid artery. In words: Biodistribution in ApoE ligation model of atherosclerosis (ligated and sham). It counts as in vivo. From the text:
ApoE −/− mice are transgenic knock-out mice, which lack the ApoE gene, and are therefore unable to regulate their plasma cholesterol levels. As a consequence ApoE mice develop atherosclerotic lesions, a process which is accelerated with feeding of high fat diet. Further acceleration of lesion development can be achieved by ligating the carotid artery, resulting in advanced lesion formation within 4 weeks of surgery and high fat diet feeding.
Two controls have been used for these experiments: (1) ApoE sham animals in which the mice undergo the same surgical intervention but the sture is only passed beneath the carotid and then removed and, (2) C57BL/6 ligtaed animals which undergo the same surgical ligation and high fat feeding as the ApoE ligated mice. Literature reports have stated that these animals do have some level of tissue remodelling, but with lower active MMP levels [Ivan et al, Circulation, 105, 2686-2691 (2002)].

In data set [4] the test system is Lewis lung carcinoma (LLC) tumour. The data set can be described thus: Biodistribution in LLC tumour model in vivo. Also on record: species or system C57BL/6 mice. The protocol:
1×10^6 Lewis lung carcinoma (LLC) cells are injected subcutaneously into right inner thigh of C57BL/6 mice. Tumours were allowed to grow for 15 days prior to biodistribution being carried out.
Biodistribution studies were performed in the LLC tumour model.
Biodistribution was performed in the LLC tumour model of Example 23 with Compounds 46B and 48B.

Data set [5] in a line: In vitro rat plasma stability. It counts as in vitro ADME. The protocol: Plasma and in vivo stability studies were performed with Compound 24A to determine the stability and metabolism of the compound.
[6] abbreviates: ApoE Ligated, 5 min post injection.
Setting [7] is: ApoE Ligated, 60 min post injection.
Setting [8] is: ApoE Sham, 60 min post injection.

Usually Ki stands for a dissociation constant, usually derived from enzyme kinetics or from competition with a known ligand. A low value points to higher affinity.

MMP-9, sequence (P14780 94-707): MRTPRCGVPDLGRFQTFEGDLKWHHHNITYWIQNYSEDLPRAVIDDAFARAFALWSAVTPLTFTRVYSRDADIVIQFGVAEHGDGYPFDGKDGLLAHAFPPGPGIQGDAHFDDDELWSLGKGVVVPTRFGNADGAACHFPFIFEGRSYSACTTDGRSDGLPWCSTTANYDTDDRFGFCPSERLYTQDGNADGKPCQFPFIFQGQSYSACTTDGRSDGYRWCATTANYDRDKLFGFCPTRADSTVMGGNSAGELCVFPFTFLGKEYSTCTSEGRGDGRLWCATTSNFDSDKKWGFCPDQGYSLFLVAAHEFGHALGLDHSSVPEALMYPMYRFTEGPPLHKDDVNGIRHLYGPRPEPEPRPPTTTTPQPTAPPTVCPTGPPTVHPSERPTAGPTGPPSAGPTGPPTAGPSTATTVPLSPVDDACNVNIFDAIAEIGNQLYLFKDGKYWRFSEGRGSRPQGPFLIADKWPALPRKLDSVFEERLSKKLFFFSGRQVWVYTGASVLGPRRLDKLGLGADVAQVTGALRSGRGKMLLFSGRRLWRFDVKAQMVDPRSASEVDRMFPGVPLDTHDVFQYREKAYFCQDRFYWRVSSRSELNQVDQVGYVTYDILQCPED
MMP-12, sequence (P39900 106-470): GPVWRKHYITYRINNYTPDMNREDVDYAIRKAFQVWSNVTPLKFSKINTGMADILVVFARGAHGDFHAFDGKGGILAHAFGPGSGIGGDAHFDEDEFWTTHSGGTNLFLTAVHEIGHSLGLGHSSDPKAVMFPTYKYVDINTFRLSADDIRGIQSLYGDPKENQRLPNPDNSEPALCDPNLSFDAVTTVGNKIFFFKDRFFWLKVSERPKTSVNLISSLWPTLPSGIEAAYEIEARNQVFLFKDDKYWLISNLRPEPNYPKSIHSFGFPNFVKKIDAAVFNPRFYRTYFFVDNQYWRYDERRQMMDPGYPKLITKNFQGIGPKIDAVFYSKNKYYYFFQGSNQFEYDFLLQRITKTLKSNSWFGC
MMP-8, sequence (P22894 101-467): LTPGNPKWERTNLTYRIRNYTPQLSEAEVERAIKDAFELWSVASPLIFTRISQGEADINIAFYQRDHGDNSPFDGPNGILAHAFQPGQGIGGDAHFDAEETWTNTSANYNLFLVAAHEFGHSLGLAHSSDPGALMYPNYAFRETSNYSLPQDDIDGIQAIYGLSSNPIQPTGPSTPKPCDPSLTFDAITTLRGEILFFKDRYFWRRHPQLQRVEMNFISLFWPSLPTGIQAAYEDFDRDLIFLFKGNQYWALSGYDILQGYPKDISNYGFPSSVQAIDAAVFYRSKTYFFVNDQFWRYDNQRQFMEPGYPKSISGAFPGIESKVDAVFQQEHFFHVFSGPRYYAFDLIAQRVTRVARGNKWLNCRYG

Consider `NC(=O)[C@H](CCCCNC(=O)CON=Cc1ccc(F)cc1)NC(=O)CCN(C1(C(=O)NO)CCCC1)S(=O)(=O)c1ccc(Oc2ccc(F)cc2)cc1` [Compound 46], for which the Ki turned out to be 0.17 nM at MMP-12; 172 nM at MMP-1; 1.96 nM on MMP-2; 0.52 nM on MMP-8; 0.44 nM on MMP-9.
For the compound `O=C(CCN(C1(C(=O)NO)CCCC1)S(=O)(=O)c1ccc(Oc2ccc(F)cc2)cc1)NCCc1ccc(O)c([123I])c1` [Compound 24A], in data set [1] (in vivo), the “Metabolites detected in bile samples” value was determined as 4 and the “Metabolites detected in plasma samples” value is “One metabolite”. Besides, the “Free iodide in plasma samples” value in data set [1] (in vivo, through time) is on record as “increasing amount of free iodide”. Moreover, the “In vivo stability and metabolism” value in data set [1] (through time in vivo) is “slight instability and metabolism”. For the same compound, in [2], the “Tumour hotspots on imaging” value was “seen from 5 to 120 minutes post injection”. In data set [3] (setting [6]), the “% ID/G Carotid, mean” value is 2.67 % ID/G; the “Carotid/Blood, mean” value turned out to be 0.94; the “Carotid/Heart, mean” value was 0.48; the “Carotid/Lung, mean” value turned out to be 0.62. In addition, in data set [3] (setting [7]), the “% ID/G Carotid, mean” value is listed as 2.00 % ID/G; the “Carotid/Blood, mean” value was 1.97; the “Carotid/Heart, mean” value worked out at 1.03; the “Carotid/Lung, mean” value came out at 1.71. In [3] (setting [8]), the “% ID/G Carotid, mean” value stood at 0.25 % ID/G; the “Carotid/Blood, mean” value is 0.19; the “Carotid/Heart, mean” value was found to be 0.21; the “Carotid/Lung, mean” value worked out at 0.17. Further, in data set [4], the “Background tissue uptake” value is listed as “low background tissue uptake”; the “Blood clearance / retention” value is on record as “cleared very rapidly from the blood”; the “Route of excretion” value is “primarily excreted through the hepatobiliary system (HBS)”; the “Tumour uptake and retention” value is reported as “Some retention was seen within tumour tissue”. In [4] (5 min post injection), the “% ID Urinary (urinary excretion), mean” value is listed as 7.17 % ID; the “% ID/g Tumour, mean” value was found to be 0.6 % ID/g; the “Tumour/Blood, mean” value was found to be 0.32; the “Tumour/Heart, mean” value was found to be 0.27. In [4] (5 min post injection), the “Tumour/Lung, mean” value was found to be 0.22 and the “Tumour/Muscle, mean” value is on record as 1.19. In data set [4] (30 min post injection), the “% ID Urinary (urinary excretion), mean” value was determined as 6.89 % ID; the “% ID/g Tumour, mean” value came out at 0.56 % ID/g; the “Tumour/Blood, mean” value was determined as 0.59; the “Tumour/Heart, mean” value was determined as 0.57. In data set [4] (30 min post injection), the “Tumour/Lung, mean” value was 0.39 and the “Tumour/Muscle, mean” value is on record as 1.6. Besides, in data set [4] (60 min post injection), the “% ID Urinary (urinary excretion), mean” value is 5.5 % ID; the “% ID/g Tumour, mean” value is recorded as 0.48 % ID/g; the “Tumour/Blood, mean” value is given as 0.46; the “Tumour/Heart, mean” value is on record as 0.68. In addition, in data set [4] (60 min post injection), the “Tumour/Lung, mean” value amounted to 0.37 and the “Tumour/Muscle, mean” value came to 1.41. Further, in data set [4] (120 min post injection), the “% ID Urinary (urinary excretion), mean” value was determined as 7.22 % ID; the “% ID/g Tumour, mean” value came to 0.6 % ID/g; the “Tumour/Blood, mean” value came out at 0.66; the “Tumour/Heart, mean” value was found to be 1.23. In data set [4] (120 min post injection), the “Tumour/Lung, mean” value is recorded as 0.85 and the “Tumour/Muscle, mean” value worked out at 1.87. Besides, the “In vitro rat plasma stability” value in data set [5] (2 hours, 37° C.) is recorded as “good stability”. Also, in [5] (start of incubation at 37° C.), the “RCP of parent compound” value is 93%. The “RCP of parent compound” value in [5] (through 2 hours incubation at 37° C.) came out at 80%.
For the compound `O=C(CCN(C1(C(=O)NO)CCCC1)S(=O)(=O)c1ccc(Oc2ccc(F)cc2)cc1)NCCc1ccc(O)c(I)c1` [Compound 24], the Ki at MMP-12 is 0.67 nM; at MMP-1, 4950 nM; at MMP-2 it was 0.14 nM; at MMP-8 it was 3.93 nM; at MMP-9 it was 0.58 nM.
For `NC(=O)[C@H](Cc1ccc(O)c(I)c1)NC(=O)CCOCCOCCOCCOCCOCCOCCOCCOCCOCCOCCOCCNC(=O)CCOCCOCCOCCOCCOCCOCCOCCOCCOCCOCCOCCNC(=O)CCN(C1(C(=O)NO)CCCC1)S(=O)(=O)c1ccc(Oc2ccc(F)cc2)cc1` [Compound 32], the Ki at MMP-12 was 0.89 nM; on MMP-1, 330 nM; at MMP-2, 0.62 nM; on MMP-8, 2.17 nM; on MMP-9, 0.37 nM.

For the origin of these results see patent US20070104644A1, “Inhibitor imaging agents” (priority 2003, published 2007).
